{
  "source": "patent US6984624B2",
  "about": "“Composition containing an iron complexing protein and a precursor of nitrogen monoxide metabolism and/or a chemical donor of nitrogen monoxide and uses thereof” (Isocell S.A., priority 2000, dated 2006)",
  "format_in_all_cases": "cell-based, human",
  "key": {"[1]": {"system": "Intestinal epithelial cells of the Caco-2 line", "assay": "Degree of iron fixation at the cellular level as a function of concentrations (Example 3)", "settings": "Caco-2 cells, after 72 hours of incubation; tube contents per Table III (mg/ml); Control = 1", "description": "(§1) Intestinal epithelial cells of the Caco-2 line derived from a colon cancer were incubated in a proportion of 2×10^6 cells per ml in an RPMI 1640 medium buffered at pH 7.4, in the presence of 25 mmolar of Hepes, containing 15% (v/v) of fetal calf serum, 2 mmol/l of L-glutamine and 1% (v/v) of a solution of streptomycin-penicillin, sold by the company Gibco.\nTwelve tubes of epithelial cell cultures were prepared according to the conditions described above in Example 1.\nIron fixation at the cellular level was then initiated by adding Lf-^59Fe and/or labeled iron and/or L-arginine.\nOne of the cell culture tubes received none of these three constituents, so as to act as a control.\nThe distribution of the constituents, and also the concentrations at which they were used, appear in Table III below:\nThe degree of cellular fixation of iron was measured after 72 hours of incubation using a device for measuring the radioactivity."}, "[2]": {"system": "Intestinal epithelial cells of the Caco-2 line", "assay": "Iron fixation at the cellular level with added chemical donor of NO (Example 2)", "settings": "SNAP between 0 and 1 μM added to tubes 2 (Lf-^59Fe) and 4 (Lf-^59Fe + ^59Fe) of Table II", "description": "as §1\nTubes of intestinal epithelial cell cultures were prepared and cultured under the same conditions as those described above in Example 1.\nIron fixation at the cellular level was then initiated by adding Lf-^59Fe and/or labeled iron.\nOne of the cell culture tubes received none of the constituents, so as to serve as a control.\nThe distribution of the constituents, and also the concentrations at which they were used, appear in Table II below:\nThe culture tubes then received SNAP in amounts ranging between 0 and 1 μM, and the cellular fixation of radiolabeled iron were then measured using a device for measuring the radioactivity."}, "[3]": {"system": "Intestinal epithelial cells of the Caco-2 line", "assay": "Iron fixation at the cellular level with added inhibitor of the L-arginine pathway (Example 1, FIG. 2)", "settings": "1 mM added to the medium of tubes 1, 2, 4 and 8 of Table I; virtually returned to the degree without L-arginine (tube 2)", "description": "as §1\nThe cells were then incubated for a period of 16 hours in Eppendorf tubes kept stirring for the final 2 hours of the culture period. Throughout the incubation period, the amount of cellular iron was measured by centrifugation pellet of the cells a first time after 30 minutes (t=0.5), then after one hour (t=1), and then every hour (t=2 to t=16), using a device for measuring the radioactivity."}},
  "data": [
    {"smiles": "N=C(N)NCCC[C@H](N)C(=O)O", "note": "[Cell culture tube 8, L-arginine, reference compound]", "values": [
      {"measurement": "Degree of iron fixation in the cells (cpm ^59Fe)", "setting": "[1]", "result": 1, "unit": "cpm ^59Fe"}
    ]},
    {"smiles": "CC(=O)N[C@H](C(=O)O)C(C)(C)SN=O", "note": "(racemic) [SNAP, S-nitroso-N-acetylpenicillamine]", "values": [
      {"measurement": "Degree of iron fixation in the epithelial cells after addition of SNAP", "setting": "[2]", "result": "increase the degree of iron fixation in the epithelial cells"}
    ]},
    {"smiles": "COC(=O)[C@@H](N)CCCNC(=N)N[N+](=O)[O-]", "note": "[L-NAME, N^ω-nitro-L-arginine methyl ester]", "values": [
      {"measurement": "Degree of iron fixation at the cellular level after addition of L-NAME", "setting": "[3]", "result": "very large decrease in the degree of iron fixation at the cellular level"}
    ]}
  ]
}
